This test concerns L1210 leukemia ip in BDF1 mice, survival T/C. In words: NCI In Vivo Anticancer Drug Screen. Data for tumor model L1210 Leukemia (intraperitoneal) in B6D2F1 (BDF1) mice. To be noted: endpoint: mean survival time, higher = longer survival. An outline of the steps: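 Tumor was transplanted into mice, which were then dosed with test compound or vehicle alone. Survival was recorded for each group, and the treated figure was expressed relative to the control figure.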

Where [1] appears, read: dose: 50.0 mg/kg/injection, schedule: Q01DX001 (ip), vehicle: saline.
Where [2] appears, read: dose: 100.0 mg/kg/injection, schedule: Q01DX001 (ip), vehicle: saline.
[3] abbreviates: dose: 200.0 mg/kg/injection, schedule: Q01DX001 (ip), vehicle: saline.
Where [4] appears, read: dose: 400.0 mg/kg/injection, schedule: Q01DX001 (ip), vehicle: saline.
Setting [5] is: dose: 100.0 mg/kg/injection, schedule: Q01DX009 (ip), vehicle: saline with Tween-80.
The mark [6] stands for this setting: dose: 200.0 mg/kg/injection, schedule: Q01DX009 (ip), vehicle: saline with Tween-80.
Where [7] appears, read: dose: 50.0 mg/kg/injection, schedule: Q01DX009 (ip), vehicle: Klucel (hydroxypropylcellulose) (HPC).
Where [8] appears, read: dose: 100.0 mg/kg/injection, schedule: Q04DX003 (ip), vehicle: Klucel (hydroxypropylcellulose) (HPC).
The mark [9] stands for this setting: dose: 200.0 mg/kg/injection, schedule: Q04DX003 (ip), vehicle: Klucel (hydroxypropylcellulose) (HPC).
[10] abbreviates: dose: 100.0 mg/kg/injection, schedule: Q01DX009 (ip), vehicle: Klucel (hydroxypropylcellulose) (HPC).
Setting [11] is: dose: 200.0 mg/kg/injection, schedule: Q01DX009 (ip), vehicle: Klucel (hydroxypropylcellulose) (HPC).

Values joined by “and” are separate entries in the source; they are usually repeats but may differ in a detail not shown here. Identical values can stand only once. Toxic doses and inconclusive results are not listed.

As to `CCCN1CC(C(=O)OCC)C(=O)C1=O` (stereo unspecified), the T/C under setting [1] was 108 % of control, the T/C under setting [2] was 100 % of control, the T/C under setting [3] was 96 % of control and the T/C under setting [4] was 102 % of control.
For the molecule `COC(OC)c1[nH]c(=S)[nH]c(=O)c1Cc1ccc(C)c(C)c1`, the T/C is 104 % of control under setting [5]; 94 % of control (dose: 100.0 mg/kg/injection, schedule: Q04DX003 (ip), vehicle: saline with Tween-80); 96 % of control under setting [6]; 96 % of control (dose: 200.0 mg/kg/injection, schedule: Q04DX003 (ip), vehicle: saline with Tween-80); 87 % of control (dose: 400.0 mg/kg/injection, schedule: Q01DX009 (ip), vehicle: saline with Tween-80); 100 % of control (dose: 400.0 mg/kg/injection, schedule: Q04DX003 (ip), vehicle: saline with Tween-80).
For `CS(=O)(=O)c1nc(Cl)c(Cl)[nH]1`, the T/C by setting is: (dose: 100.0 mg/kg/injection, schedule: Q01DX001 (ip), vehicle: saline with Tween-80) 100 % of control; (dose: 200.0 mg/kg/injection, schedule: Q01DX001 (ip), vehicle: saline with Tween-80) 102 % of control; (dose: 400.0 mg/kg/injection, schedule: Q01DX001 (ip), vehicle: saline with Tween-80) 104 % of control.
As to `CCSCCC1(CCC(C)C)C(=O)NC(=Nc2ccccc2)NC1=O` (stereo unspecified), the T/C is 90 % of control (dose: 100.0 mg/kg/injection, schedule: Q01DX001 (ip), vehicle: carboxymethylcellulose (CMC)); 88 % of control (dose: 200.0 mg/kg/injection, schedule: Q01DX001 (ip), vehicle: carboxymethylcellulose (CMC)); 96 % of control (dose: 400.0 mg/kg/injection, schedule: Q01DX001 (ip), vehicle: carboxymethylcellulose (CMC)).
As for `Cc1ccc(-c2ccccc2)cc1C(=O)O`, the T/C by setting is: (dose: 100.0 mg/kg/injection, schedule: Q04DX002 (ip), vehicle: Klucel (hydroxypropylcellulose) (HPC)) 94 % of control; (dose: 200.0 mg/kg/injection, schedule: Q04DX002 (ip), vehicle: Klucel (hydroxypropylcellulose) (HPC)) 90 % of control; (dose: 400.0 mg/kg/injection, schedule: Q04DX002 (ip), vehicle: Klucel (hydroxypropylcellulose) (HPC)) 101 % of control.
Take `O=NN(Cc1ccccc1)Cc1ccccc1`: the T/C by setting is: under setting [1], 104 % of control; under setting [2], 102 % of control; under setting [3], 98 % of control; under setting [4], 104 % of control.
Take `CCSC1=NCCS1`: the T/C runs as follows: (dose: 9.5 mg/kg/injection, schedule: Q01DX001 (ip), vehicle: other) 103 % of control; (dose: 19.0 mg/kg/injection, schedule: Q01DX001 (ip), vehicle: other) 112 % of control; (dose: 38.0 mg/kg/injection, schedule: Q01DX001 (ip), vehicle: other) 103 % of control; (dose: 75.0 mg/kg/injection, schedule: Q01DX001 (ip), vehicle: other) 112 % of control; (dose: 150.0 mg/kg/injection, schedule: Q01DX001 (ip), vehicle: other) 101 % of control.
In the case of `COc1cccc2cc(C3(c4ccccc4)OC(=O)c4ccccc43)ccc12` (stereo unspecified), the T/C was 90 % of control (dose: 100.0 mg/kg/injection, schedule: Q01DX001 (ip), vehicle: other); 94 % of control (dose: 200.0 mg/kg/injection, schedule: Q01DX001 (ip), vehicle: other); 95 % of control (dose: 400.0 mg/kg/injection, schedule: Q01DX001 (ip), vehicle: other).
Turning to `CCOC(=O)c1ccc(=O)[nH]c1.[Ag]`, the T/C is 94 % of control (dose: 6.25 mg/kg/injection, schedule: Q01DX009 (ip), vehicle: Klucel (hydroxypropylcellulose) (HPC)); 90 % of control (dose: 12.5 mg/kg/injection, schedule: Q01DX009 (ip), vehicle: Klucel (hydroxypropylcellulose) (HPC)); 90 % of control (dose: 25.0 mg/kg/injection, schedule: Q01DX009 (ip), vehicle: Klucel (hydroxypropylcellulose) (HPC)); 86 % of control under setting [7]; 95 % of control under setting [8]; 92 % of control under setting [9].
As to `COC(=O)c1cn2c(c1C(=O)OC)CCC2`, the T/C by setting is: (dose: 12.5 mg/kg/injection, schedule: Q01DX009 (ip), vehicle: other) 93 % of control; (dose: 25.0 mg/kg/injection, schedule: Q01DX009 (ip), vehicle: other) 96 % of control; (dose: 50.0 mg/kg/injection, schedule: Q01DX009 (ip), vehicle: other) 222 % of control; (dose: 59.0 mg/kg/injection, schedule: Q01DX009 (ip), vehicle: other) 94 % of control and 113 % of control; (dose: 89.0 mg/kg/injection, schedule: Q01DX009 (ip), vehicle: other) 99 % of control and 102 % of control; (dose: 100.0 mg/kg/injection, schedule: Q01DX009 (ip), vehicle: other) 459 % of control. The T/C was 93 % of control and 106 % of control (dose: 133.0 mg/kg/injection, schedule: Q01DX009 (ip), vehicle: other); 116 % of control (dose: 300.0 mg/kg/injection, schedule: Q01DX009 (ip), vehicle: other).
`O=[N+]([O-])c1ccc(OCCCCOc2ccccc2)cc1`: the T/C by setting is: (dose: 100.0 mg/kg/injection, schedule: Q01DX009 (ip), vehicle: saline) 110 % of control; (dose: 200.0 mg/kg/injection, schedule: Q01DX009 (ip), vehicle: saline) 96 % of control; (dose: 400.0 mg/kg/injection, schedule: Q01DX009 (ip), vehicle: saline) 92 % of control.
For `C[N+]1(C)CC2C3C=CC(C3)C2C1` (stereo unspecified), the T/C by setting is: under setting [8], 102 % of control; under setting [9], 96 % of control.
Regarding `CC(C)CCCC(C)C1CCC2C3CCC4=CC5(CCC4(C)C3CCC12C)SCCS5` (stereo unspecified), the T/C is 98 % of control (dose: 50.0 mg/kg/injection, schedule: Q01DX009 (ip), vehicle: saline with Tween-80); 101 % of control under setting [5]; 95 % of control under setting [6].
`Nc1ccc(S(=O)(=O)Nc2ccc(I)cc2)cc1`: the T/C was 100 % of control under setting [10]; 100 % of control under setting [8]; 96 % of control under setting [11]; 97 % of control under setting [9]; 93 % of control (dose: 400.0 mg/kg/injection, schedule: Q01DX009 (ip), vehicle: Klucel (hydroxypropylcellulose) (HPC)); 92 % of control (dose: 400.0 mg/kg/injection, schedule: Q04DX003 (ip), vehicle: Klucel (hydroxypropylcellulose) (HPC)).
With `CC1C2CCC(C2)C1(C)C` (stereo unspecified), the T/C is, setting by setting: (dose: 100.0 mg/kg/injection, schedule: Q01DX001 (ip), vehicle: Klucel (hydroxypropylcellulose) (HPC)) 93 % of control; (dose: 200.0 mg/kg/injection, schedule: Q01DX001 (ip), vehicle: Klucel (hydroxypropylcellulose) (HPC)) 100 % of control; (dose: 400.0 mg/kg/injection, schedule: Q01DX001 (ip), vehicle: Klucel (hydroxypropylcellulose) (HPC)) 102 % of control.
For the molecule `C=Cc1ccccn1`, the T/C reads like this: (dose: 75.0 mg/kg/injection, schedule: Q01DX001 (ip), vehicle: saline) 98 % of control; (dose: 150.0 mg/kg/injection, schedule: Q01DX001 (ip), vehicle: saline) 102 % of control; (dose: 300.0 mg/kg/injection, schedule: Q01DX001 (ip), vehicle: saline) 97 % of control.
As to `CC[Si](CC)(CC)c1ccc(CCNCCS)s1`, the T/C runs as follows: (dose: 75.0 mg/kg/injection, schedule: Q04DX003 (ip), vehicle: saline) 95 % of control; (dose: 150.0 mg/kg/injection, schedule: Q04DX003 (ip), vehicle: saline) 93 % of control.
In the case of `C[N+](C)(CCc1ccccc1)CC(O)COc1ccccc1` (stereo unspecified), the T/C (dose: 4.5 mg/kg/injection, schedule: Q01DX009 (ip), vehicle: Klucel (hydroxypropylcellulose) (HPC)) was 89 % of control; the T/C (dose: 9.0 mg/kg/injection, schedule: Q01DX009 (ip), vehicle: Klucel (hydroxypropylcellulose) (HPC)) was 92 % of control; the T/C (dose: 18.0 mg/kg/injection, schedule: Q01DX009 (ip), vehicle: Klucel (hydroxypropylcellulose) (HPC)) is 94 % of control; the T/C (dose: 18.75 mg/kg/injection, schedule: Q04DX003 (ip), vehicle: Klucel (hydroxypropylcellulose) (HPC)) is 98 % of control.
With `CC1=C(c2ccccc2)C(O)(c2ccccc2)C(C)C1=O` (stereo unspecified), the T/C by setting is: under setting [7], 101 % of control; under setting [10], 93 % of control; under setting [11], 95 % of control.
As to `N#CCN(CC#N)CC#N`, the T/C runs as follows: (dose: 3.13 mg/kg/injection, schedule: Q04DX003 (ip), vehicle: saline with Tween-80) 102 % of control; (dose: 6.25 mg/kg/injection, schedule: Q04DX003 (ip), vehicle: saline with Tween-80) 111 % of control.

The values above are taken from PubChem BioAssay AID248 (DTP/NCI, 2004).
